# Structures can show the parent of a compound that is named as a salt.
# Target: T1, ENaC (Homo sapiens, UniProt P37088+P51168+P51170)
# T1 construct: host or cells: primary human bronchial epithelial cells (HBECs) differentiated at air-liquid interface
# T1 sequence (P37088 1-669): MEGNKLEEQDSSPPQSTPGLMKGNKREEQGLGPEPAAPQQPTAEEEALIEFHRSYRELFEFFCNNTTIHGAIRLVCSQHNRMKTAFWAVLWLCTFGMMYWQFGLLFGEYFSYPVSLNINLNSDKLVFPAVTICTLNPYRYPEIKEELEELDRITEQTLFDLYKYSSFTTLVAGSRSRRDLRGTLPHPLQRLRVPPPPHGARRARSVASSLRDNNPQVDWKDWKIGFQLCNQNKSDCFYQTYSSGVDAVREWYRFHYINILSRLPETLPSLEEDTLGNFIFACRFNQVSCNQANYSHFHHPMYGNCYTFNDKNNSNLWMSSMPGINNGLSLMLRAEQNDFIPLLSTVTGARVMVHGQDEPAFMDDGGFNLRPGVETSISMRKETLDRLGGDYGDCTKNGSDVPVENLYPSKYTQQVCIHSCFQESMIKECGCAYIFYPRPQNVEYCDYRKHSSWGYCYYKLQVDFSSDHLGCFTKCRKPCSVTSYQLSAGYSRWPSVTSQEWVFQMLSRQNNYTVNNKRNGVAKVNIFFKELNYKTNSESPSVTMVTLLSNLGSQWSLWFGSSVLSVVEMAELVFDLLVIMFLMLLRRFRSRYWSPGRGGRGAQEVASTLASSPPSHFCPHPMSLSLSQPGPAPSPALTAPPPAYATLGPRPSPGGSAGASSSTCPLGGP
# T1 sequence (P51168 1-640): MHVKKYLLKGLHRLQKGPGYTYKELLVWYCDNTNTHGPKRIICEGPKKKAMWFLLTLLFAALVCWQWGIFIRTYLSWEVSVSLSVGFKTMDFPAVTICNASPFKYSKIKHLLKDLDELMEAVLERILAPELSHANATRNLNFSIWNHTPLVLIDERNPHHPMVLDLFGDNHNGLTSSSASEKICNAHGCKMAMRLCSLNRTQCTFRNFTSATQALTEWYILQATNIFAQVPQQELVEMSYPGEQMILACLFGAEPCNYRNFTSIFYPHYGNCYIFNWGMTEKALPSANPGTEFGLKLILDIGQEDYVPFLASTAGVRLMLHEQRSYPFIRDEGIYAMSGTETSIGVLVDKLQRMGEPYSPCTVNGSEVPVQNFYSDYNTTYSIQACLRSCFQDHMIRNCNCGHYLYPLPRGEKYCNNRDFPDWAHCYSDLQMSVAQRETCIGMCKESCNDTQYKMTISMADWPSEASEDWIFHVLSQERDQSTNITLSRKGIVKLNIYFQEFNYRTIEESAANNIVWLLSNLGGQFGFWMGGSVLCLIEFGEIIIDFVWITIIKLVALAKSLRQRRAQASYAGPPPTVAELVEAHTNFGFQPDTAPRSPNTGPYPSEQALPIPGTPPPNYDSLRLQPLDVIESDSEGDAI
# T1 sequence (P51170 1-649): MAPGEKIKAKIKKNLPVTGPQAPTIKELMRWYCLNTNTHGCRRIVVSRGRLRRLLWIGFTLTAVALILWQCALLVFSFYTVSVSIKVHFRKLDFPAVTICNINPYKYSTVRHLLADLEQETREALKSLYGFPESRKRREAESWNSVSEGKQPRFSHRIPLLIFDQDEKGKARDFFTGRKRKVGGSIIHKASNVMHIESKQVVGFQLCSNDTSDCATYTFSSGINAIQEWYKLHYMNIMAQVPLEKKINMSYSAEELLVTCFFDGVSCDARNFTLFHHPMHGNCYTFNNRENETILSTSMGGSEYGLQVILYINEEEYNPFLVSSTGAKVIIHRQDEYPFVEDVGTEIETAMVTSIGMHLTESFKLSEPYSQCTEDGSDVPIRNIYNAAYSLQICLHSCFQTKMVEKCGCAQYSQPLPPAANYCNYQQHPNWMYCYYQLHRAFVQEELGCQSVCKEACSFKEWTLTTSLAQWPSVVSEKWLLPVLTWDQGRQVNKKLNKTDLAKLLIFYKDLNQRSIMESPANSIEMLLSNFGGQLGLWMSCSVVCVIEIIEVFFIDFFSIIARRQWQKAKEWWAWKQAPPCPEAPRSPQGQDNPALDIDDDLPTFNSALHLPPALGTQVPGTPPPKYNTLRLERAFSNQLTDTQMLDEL
# Assay: Short circuit current assay to determine ENaC blocker potency in human bronchial epithelial cells
# Type: cell-based
# Conditions: 50% inhibition of total amiloride-sensitive ISC, apical addition, read-out: Averages.ENaC IC50 (nM) Avg
# Summary of the method: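 Primary human bronchial epithelial cells at air-liquid interface (days 14–21) were voltage-clamped at 0 mV in Ussing chambers (Ringer, pH 7.4, 37° C.). Compounds were added apically as cumulative concentrations, then 10 μM amiloride. IC50 was taken as 50% inhibition of amiloride-sensitive ISC.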
row,Compound,IC50 [nM]
1,"CCn1c(CNC(=O)c2nc3cc[nH]c3nc2N)[n+](CC)c2ccc(OCCCN(C[C@H](O)[C@@H](O)[C@H](O)[C@H](O)CO)C[C@H](O)[C@@H](O)[C@H](O)[C@H](O)CO)cc21 [Example 44, 2-[({3-amino-5H-pyrrolo[2,3-b]pyrazin-2-yl}formamido)methyl]-5-(3-{bis[(2S,3R,4R,5R)-2,3,4,5,6-pentahydroxyhexyl]amino}propoxy)-1,3-diethyl-1H-1,3-benzodiazol-3-ium]",21
2,"CCn1c(CNC(=O)c2nc3cc[nH]c3nc2N)[n+](CC)c2ccc(C(=O)N3CCC(N(C[C@H](O)[C@@H](O)[C@H](O)[C@H](O)CO)C[C@H](O)[C@@H](O)[C@H](O)[C@H](O)CO)CC3)cc21 [Example 50, 2-[({3-amino-5H-pyrrolo[2,3-b]pyrazin-2-yl}formamido)methyl]-6-(4-{bis[(2S,3R,4R,5R)-2,3,4,5,6-pentahydroxyhexyl]amino}piperidine-1-carbonyl)-1,3-diethyl-1H-1,3-benzodiazol-3-ium]",35
3,"CCn1c(CNC(=O)c2nc3cc[nH]c3nc2N)[n+](CC)c2ccc(C(=O)NCCN3CCC(N(C[C@H](O)[C@@H](O)[C@H](O)[C@H](O)CO)C[C@H](O)[C@@H](O)[C@H](O)[C@H](O)CO)CC3)cc21 [Example 51, 2-[({3-amino-5H-pyrrolo[2,3-b]pyrazin-2-yl}formamido)methyl]-6-{[2-(4-{bis[(2S,3R,4R,5R)-2,3,4,5,6-pentahydroxyhexyl]amino}piperidin-1-yl)ethyl]carbamoyl}-1,3-diethyl-1H-1,3-benzodiazol-3-ium]",38
4,"CCn1c(CNC(=O)c2nc3cc[nH]c3nc2N)[n+](CC)c2ccc(C(=O)N3CC[C@@H](N(C[C@H](O)[C@@H](O)[C@H](O)[C@H](O)CO)C[C@H](O)[C@@H](O)[C@H](O)[C@H](O)CO)C3)cc21 [Example 53, 2-[({3-amino-5H-pyrrolo[2,3-b]pyrazin-2-yl}formamido)methyl]-6-[(3R)-3-{bis[(2S,3R,4R,5R)-2,3,4,5,6-pentahydroxyhexyl]amino}pyrrolidine-1-carbonyl]-1,3-diethyl-1H-1,3-benzodiazol-3-ium]",202
5,"CCn1c(CNC(=O)c2nc3c(Cl)c[nH]c3nc2N)[n+](CC)c2ccc(C(=O)O)cc21 [Example 63, 2-[({3-amino-7-chloro-5H-pyrrolo[2,3-b]pyrazin-2-yl}formamido)methyl]-6-carboxy-1,3-diethyl-1H-1,3-benzodiazol-3-ium]",133
6,"CCn1c(CNC(=O)c2nc3c(Br)c[nH]c3nc2N)[n+](CC)c2ccc(C(=O)O)cc21 [Example 64, 2-[({3-amino-7-bromo-5H-pyrrolo[2,3-b]pyrazin-2-yl}formamido)methyl]-6-carboxy-1,3-diethyl-1H-1,3-benzodiazol-3-ium]",244
7,"CCn1c(CNC(=O)c2nc3c(Cl)c[nH]c3nc2N)[n+](CC)c2ccc(C(=O)N3CCC(N(C[C@H](O)[C@@H](O)[C@H](O)[C@H](O)CO)C[C@H](O)[C@@H](O)[C@H](O)[C@H](O)CO)CC3)cc21 [Example 65, 2-[({3-amino-7-chloro-5H-pyrrolo[2,3-b]pyrazin-2-yl}formamido)methyl]-6-(4-{bis[(2S,3R,4R,5R)-2,3,4,5,6-pentahydroxyhexyl]amino}piperidine-1-carbonyl)-1,3-diethyl-1H-1,3-benzodiazol-3-ium]",49
8,"CCn1c(CNC(=O)c2nc3c(Br)c[nH]c3nc2N)[n+](CC)c2ccc(C(=O)N3CCC(N(C[C@H](O)[C@@H](O)[C@H](O)[C@H](O)CO)C[C@H](O)[C@@H](O)[C@H](O)[C@H](O)CO)CC3)cc21 [Example 66, 2-[({3-amino-7-bromo-5H-pyrrolo[2,3-b]pyrazin-2-yl}formamido)methyl]-6-(4-{bis[(2S,3R,4R,5R)-2,3,4,5,6-pentahydroxyhexyl]amino}piperidine-1-carbonyl)-1,3-diethyl-1H-1,3-benzodiazol-3-ium]",199
9,"CCn1c(CNC(=O)c2nc3c(C#N)c[nH]c3nc2N)[n+](CC)c2ccc(OC)cc21 [Example 67, 2-[({3-amino-7-cyano-5H-pyrrolo[2,3-b]pyrazin-2-yl}formamido)methyl]-1,3-diethyl-6-methoxy-1H-1,3-benzodiazol-3-ium formate]",54

# The next compounds have a lower IC50 than those just listed; values first:
row,IC50 [nM],Compound
1,14,"CCn1c(CNC(=O)c2nc3cc[nH]c3nc2N)[n+](CC)c2cc(CCCN(C[C@H](O)[C@@H](O)[C@H](O)[C@H](O)CO)C[C@H](O)[C@@H](O)[C@H](O)[C@H](O)CO)ccc21 [Example 45, 2-[({3-amino-5H-pyrrolo[2,3-b]pyrazin-2-yl}formamido)methyl]-5-(3-{bis[(2S,3R,4R,5R)-2,3,4,5,6-pentahydroxyhexyl]amino}propyl)-1,3-diethyl-1H-1,3-benzodiazol-3-ium]"
2,8,"CCn1c(CNC(=O)c2nc3cc[nH]c3nc2N)[n+](CC)c2ccc(C3CCN(C[C@H](O)[C@@H](O)[C@H](O)[C@H](O)CO)CC3)cc21 [Example 46, 2-[({3-amino-5H-pyrrolo[2,3-b]pyrazin-2-yl}formamido)methyl]-1,3-diethyl-6-{1-[(2S,3R,4R,5R)-2,3,4,5,6-pentahydroxyhexyl]piperidin-4-yl}-1H-1,3-benzodiazol-3-ium]"
3,5,"CCn1c(CNC(=O)c2nc3cc[nH]c3nc2N)[n+](CC)c2ccc(-c3cnn(C4CCN(C[C@H](O)[C@@H](O)[C@H](O)[C@H](O)CO)CC4)c3)cc21 [Example 47, 2-[({3-amino-5H-pyrrolo[2,3-b]pyrazin-2-yl}formamido)methyl]-1,3-diethyl-6-(1-{1-[(2S,3R,4R,5R)-2,3,4,5,6-pentahydroxyhexyl]piperidin-4-yl}-1H-pyrazol-4-yl)-1H-1,3-benzodiazol-3-ium]"
4,18,"CCn1c(CNC(=O)c2nc3cc[nH]c3nc2N)[n+](CC)c2ccc(C(=O)NCCCN(C[C@H](O)[C@@H](O)[C@H](O)[C@H](O)CO)C[C@H](O)[C@@H](O)[C@H](O)[C@H](O)CO)cc21 [Example 48, 2-[({3-amino-5H-pyrrolo[2,3-b]pyrazin-2-yl}formamido)methyl]-6-[(3-{bis[(2S,3R,4R,5R)-2,3,4,5,6-pentahydroxyhexyl]amino}propyl)carbamoyl]-1,3-diethyl-1H-1,3-benzodiazol-3-ium]"
5,7,"CCn1c(CNC(=O)c2nc3cc[nH]c3nc2N)[n+](CC)c2ccc(C(=O)NC3CCN(C[C@H](O)[C@@H](O)[C@H](O)[C@H](O)CO)CC3)cc21 [Example 49, 2-[({3-amino-5H-pyrrolo[2,3-b]pyrazin-2-yl}formamido)methyl]-1,3-diethyl-6-({1-[(2S,3R,4R,5R)-2,3,4,5,6-pentahydroxyhexyl]piperidin-4-yl}carbamoyl)-1H-1,3-benzodiazol-3-ium]"

# Tested on: not listed separately
# Assay: Bronchoalveolar lavage (BAL) procedure: compound levels after intratracheal administration
# Type: in vivo
# Conditions: bronchoalveolar lavage fluid (BAL), other: intratracheal, 0.1 mg/kg, rat, 0.1 mg/mL solution in 5% dextrose, 1 mL/Kg, BAL 6 hours after administration, LC/MS/MS
# Description: Example 69—Bronchoalveolar Lavage (BAL) Procedure A 0.1 mg/mL solution of ENaC inhibitor in 5% dextrose was administered intratracheally to a rat weighing 225-250 g. A volume of 1 mL/Kg was used. After 6 hours, lungs were lavaged with 3×4 mL of sterile saline. A 1 mL aliquot was subsequently snap frozen. Lungs were excised, weighed and snap frozen. Compound levels in the BAL and lung tissue were subsequently determined using LC/MS/MS bioanalysis.
row,concentration at 6 h [ng/mL],Compound
1,260,"CCn1c(CNC(=O)c2nc3cc[nH]c3nc2N)[n+](CC)c2ccc(C(=O)N3CCC(N(C[C@H](O)[C@@H](O)[C@H](O)[C@H](O)CO)C[C@H](O)[C@@H](O)[C@H](O)[C@H](O)CO)CC3)cc21 [Example 50, 2-[({3-amino-5H-pyrrolo[2,3-b]pyrazin-2-yl}formamido)methyl]-6-(4-{bis[(2S,3R,4R,5R)-2,3,4,5,6-pentahydroxyhexyl]amino}piperidine-1-carbonyl)-1,3-diethyl-1H-1,3-benzodiazol-3-ium]"
